Experiments:
[1] = tested on: HBV (HepG2.117 cell line, inducibly HBV producing); experiment: Anti-HBV activity: intracellular HBV DNA by real-time PCR in HepG2.117 cells after 3 days of treatment; assay type: cell-based, hepatitis B virus; conditions: Hepatitis B virus, HepG2.117, 72 h, HepG2.117 cells, 3 days of treatment, intracellular HBV DNA by real-time PCR; mean value; read-out: EC50 (μM, mean value)
In short: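 Readout is intracellular HBV DNA, measured by real-time PCR with HBV-specific primers and probe after 3 days of exposure to serial compound dilutions. Cells are the stable HepG2.117 line, where HBV replication is induced in the absence of doxycycline.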

in vitro = assay type: cell-based; conditions: human, HepG2 or HepG2.117 cells, 3-days incubation (unmarked values), ATPlite; mean value
In short: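 Luminescent ATP quantitation served as the viability endpoint following a 3- or 4-day incubation with test compounds.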

| Compound | EC50 [1] | CC50 at 3 days (in vitro) |
| --- | --- | --- |
| CC(C)NC(=O)c1ccc(-n2c(NC(C)C)nc3c(c2=O)C[C@@H](C)N(C(=O)c2ccc(Cl)c(Cl)c2)C3)cc1 [Compound C178, 4-[(6R)-7-(3,4-dichlorobenzoyl)-6-methyl-4-oxo-2-[(propan-2-yl)amino]-5,6,7,8-tetrahydropyrido[3,4-d]pyrimidin-3(4H)-yl]-N-(propan-2-yl)benzamide] | 0.04 µM | > 50 µM |
| COC(=O)C1COCCN1c1ccc(-n2c(NC(C)C)nc3c(c2=O)CCN(C(=O)c2ccc(Cl)c(Cl)c2)C3)cc1 (stereo not drawn) [Compound C179, methyl 4-{4-[7-(3,4-dichlorobenzoyl)-4-oxo-2-[(propan-2-yl)amino]-5,6,7,8-tetrahydropyrido[3,4-d]pyrimidin-3(4H)-yl]phenyl}morpholine-3-carboxylate] | 0.72 µM | 19.3 µM |
| CNC1CCN(c2ccc(-n3c(NC(C)C)nc4c(c3=O)CCN(C(=O)c3ccc(Cl)c(Cl)c3)C4)cc2)C1 (stereo not drawn) [Compound C180, 7-(3,4-dichlorobenzoyl)-3-{4-[3-(methylamino)pyrrolidin-1-yl]phenyl}-2-[(propan-2-yl)amino]-5,6,7,8-tetrahydropyrido[3,4-d]pyrimidin-4(3H)-one] | 0.72 µM | 5.6 µM |
| CC(C)Nc1nc2c(c(=O)n1-c1ccc(S(C)(=O)=O)cc1)CCN(C(=O)c1cc(Cl)c(Cl)s1)C2 [Compound C181, 7-(4,5-dichlorothiophene-2-carbonyl)-3-[4-(methanesulfonyl)phenyl]-2-[(propan-2-yl)amino]-5,6,7,8-tetrahydropyrido[3,4-d]pyrimidin-4(3H)-one] | 2.56 µM | > 50 µM |
| CC(C)Nc1nc2c(c(=O)n1-c1ccc(S(C)(=O)=O)cc1)CCN(C(=O)c1cc3ccccc3s1)C2 [Compound C182, 7-(1-benzothiophene-2-carbonyl)-3-[4-(methanesulfonyl)phenyl]-2-[(propan-2-yl)amino]-5,6,7,8-tetrahydropyrido[3,4-d]pyrimidin-4(3H)-one] | 3.14 µM | > 50 µM |
| CC(C)Nc1nc2c(c(=O)n1-c1ccc(Br)cc1)C[C@@H](C)N(C(=O)c1ccc(Cl)c(Cl)c1)C2 [Compound C183, (6R)-3-(4-bromophenyl)-7-(3,4-dichlorobenzoyl)-6-methyl-2-[(propan-2-yl)amino]-5,6,7,8-tetrahydropyrido[3,4-d]pyrimidin-4(3H)-one] | 0.21 µM | > 50 µM |
| CC(C)Nc1nc2c(c(=O)n1-c1ccc(S(C)(=O)=O)cc1)CCN(C(=O)C1Cc3ccccc3N1)C2 (stereo not drawn) [Compound C184, 7-(2,3-dihydro-1H-indole-2-carbonyl)-3-[4-(methanesulfonyl)phenyl]-2-[(propan-2-yl)amino]-5,6,7,8-tetrahydropyrido[3,4-d]pyrimidin-4(3H)-one] | 0.71 µM | > 50 µM |
| CC(C)Nc1nc2c(c(=O)n1-c1ccc(-c3cn[nH]c3)cc1)CCN(C(=O)c1ccc(Cl)c(Cl)c1)C2 [Compound C186, 7-(3,4-dichlorobenzoyl)-2-[(propan-2-yl)amino]-3-[4-(1H-pyrazol-4-yl)phenyl]-5,6,7,8-tetrahydropyrido[3,4-d]pyrimidin-4(3H)-one] | 0.51 µM | > 50 µM |
| CC(C)Nc1nc2c(c(=O)n1-c1ccc(-c3ncccn3)cc1)CCN(C(=O)c1ccc(Cl)c(Cl)c1)C2 [Compound C187, 7-(3,4-dichlorobenzoyl)-2-[(propan-2-yl)amino]-3-[4-(pyrimidin-2-yl)phenyl]-5,6,7,8-tetrahydropyrido[3,4-d]pyrimidin-4(3H)-one] | 0.71 µM | > 45 µM |
| CC(C)Nc1nc2c(c(=O)n1-c1ccc(-c3cncs3)cc1)CCN(C(=O)c1ccc(Cl)c(Cl)c1)C2 [Compound C188, 7-(3,4-dichlorobenzoyl)-2-[(propan-2-yl)amino]-3-[4-(1,3-thiazol-5-yl)phenyl]-5,6,7,8-tetrahydropyrido[3,4-d]pyrimidin-4(3H)-one] | 0.51 µM | > 50 µM |
| CC(C)Nc1nc2c(c(=O)n1-c1ccc(-c3ccn4ccnc4c3)cc1)C[C@@H](C)N(C(=O)c1ccc(Cl)c(Cl)c1)C2 [Compound C189, (6R)-7-(3,4-dichlorobenzoyl)-3-[4-(imidazo[1,2-a]pyridin-7-yl)phenyl]-6-methyl-2-[(propan-2-yl)amino]-5,6,7,8-tetrahydropyrido[3,4-d]pyrimidin-4(3H)-one] | 0.1 µM | 9.8 µM |
| CC(C)Nc1nc2c(c(=O)n1-c1ccc(NC3COC3)cc1)C[C@@H](C)N(C(=O)c1ccc(Cl)c(Cl)c1)C2 [Compound C190, (6R)-7-(3,4-dichlorobenzoyl)-6-methyl-3-{4-[(oxetan-3-yl)amino]phenyl}-2-[(propan-2-yl)amino]-5,6,7,8-tetrahydropyrido[3,4-d]pyrimidin-4(3H)-one] | 0.18 µM | > 50 µM |
| CC(C)Nc1nc2c(c(=O)n1-c1ccc(S(C)(=O)=O)cc1)CCN(C(=O)c1ccc(Cl)c(C(F)(F)F)c1)C2 [Compound C191, 7-[4-chloro-3-(trifluoromethyl)benzoyl]-3-[4-(methanesulfonyl)phenyl]-2-[(propan-2-yl)amino]-5,6,7,8-tetrahydropyrido[3,4-d]pyrimidin-4(3H)-one] | 0.4 µM | > 50 µM |
| CC(C)Nc1nc2c(c(=O)n1-c1ccc(-c3nccn3C)cc1)C[C@@H](C)N(C(=O)c1ccc(Cl)c(Cl)c1)C2 [Compound C192, (6R)-7-(3,4-dichlorobenzoyl)-6-methyl-3-[4-(1-methyl-1H-imidazol-2-yl)phenyl]-2-[(propan-2-yl)amino]-5,6,7,8-tetrahydropyrido[3,4-d]pyrimidin-4(3H)-one] | 0.13 µM | 36.1 µM |
| CCc1cc(C(=O)N2CCc3c(nc(NC(C)C)n(-c4ccc(S(C)(=O)=O)cc4)c3=O)C2)ccc1Cl [Compound C193, 7-(4-chloro-3-ethylbenzoyl)-3-[4-(methanesulfonyl)phenyl]-2-[(propan-2-yl)amino]-5,6,7,8-tetrahydropyrido[3,4-d]pyrimidin-4(3H)-one] | 0.62 µM | > 50 µM |
| CC(C)Nc1nc2c(c(=O)n1-c1ccc(S(C)(=O)=O)cc1)CCN(C(=O)c1ccc(C(F)(F)F)c(Cl)c1)C2 [Compound C194, 7-[3-chloro-4-(trifluoromethyl)benzoyl]-3-[4-(methanesulfonyl)phenyl]-2-[(propan-2-yl)amino]-5,6,7,8-tetrahydropyrido[3,4-d]pyrimidin-4(3H)-one] | 0.55 µM | > 50 µM |
| CC(C)Nc1nc2c(c(=O)n1-c1ccc(C(N)=O)cc1)C[C@@H](C)N(C(=O)c1ccc(Cl)c(Cl)c1)C2 [Compound C195, 4-[(6R)-7-(3,4-dichlorobenzoyl)-6-methyl-4-oxo-2-[(propan-2-yl)amino]-5,6,7,8-tetrahydropyrido[3,4-d]pyrimidin-3(4H)-yl]benzamide] | 0.16 µM | > 50 µM |
| CC(C)Nc1nc2c(c(=O)n1-c1ccc(-c3ncc[nH]3)cc1)C[C@@H](C)N(C(=O)c1ccc(Cl)c(Cl)c1)C2 [Compound C196, (6R)-7-(3,4-dichlorobenzoyl)-3-[4-(1H-imidazol-2-yl)phenyl]-6-methyl-2-[(propan-2-yl)amino]-5,6,7,8-tetrahydropyrido[3,4-d]pyrimidin-4(3H)-one] | 0.17 µM | > 43 µM |
| CC(C)Nc1nc2c(c(=O)n1-c1ccc(C(=O)NCCN)cc1)C[C@@H](C)N(C(=O)c1ccc(Cl)c(Cl)c1)C2 [Compound C197, N-(2-aminoethyl)-4-[(6R)-7-(3,4-dichlorobenzoyl)-6-methyl-4-oxo-2-[(propan-2-yl)amino]-5,6,7,8-tetrahydropyrido[3,4-d]pyrimidin-3(4H)-yl]benzamide] | 1.81 µM | > 50 µM |
| C[C@@H]1Cc2c(nc(NC3(c4ccncc4)CC3)n(-c3ccc(S(C)(=O)=O)cc3)c2=O)CN1C(=O)c1ccc(Cl)c(Cl)c1 [Compound C198, (6R)-7-(3,4-dichlorobenzoyl)-3-[4-(methanesulfonyl)phenyl]-6-methyl-2-{[1-(pyridin-4-yl)cyclopropyl]amino}-5,6,7,8-tetrahydropyrido[3,4-d]pyrimidin-4(3H)-one] | 3.25 µM | > 50 µM |
| CC(Nc1nc2c(c(=O)n1-c1ccc(S(C)(=O)=O)cc1)C[C@@H](C)N(C(=O)c1ccc(Cl)c(Cl)c1)C2)C1CC1 (stereo partly drawn) [Compound C199, (6R)-2-[(1-cyclopropylethyl)amino]-7-(3,4-dichlorobenzoyl)-3-[4-(methanesulfonyl)phenyl]-6-methyl-5,6,7,8-tetrahydropyrido[3,4-d]pyrimidin-4(3H)-one] | 0.3 µM | > 50 µM |
| CC(C)Nc1nc2c(c(=O)n1-c1ccc(N3CC[C@H](O)C3)cc1)C[C@@H](C)N(C(=O)c1ccc(Cl)c(Cl)c1)C2 [Compound C200, (6R)-7-(3,4-dichlorobenzoyl)-3-{4-[(3S)-3-hydroxypyrrolidin-1-yl]phenyl}-6-methyl-2-[(propan-2-yl)amino]-5,6,7,8-tetrahydropyrido[3,4-d]pyrimidin-4(3H)-one] | 0.2 µM | 35.4 µM |
| CC(C)Nc1nc2c(c(=O)n1-c1ccc(N3CC[C@@H](O)C3)cc1)C[C@@H](C)N(C(=O)c1ccc(Cl)c(Cl)c1)C2 [Compound C201, (6R)-7-(3,4-dichlorobenzoyl)-3-{4-[(3R)-3-hydroxypyrrolidin-1-yl]phenyl}-6-methyl-2-[(propan-2-yl)amino]-5,6,7,8-tetrahydropyrido[3,4-d]pyrimidin-4(3H)-one] | 0.2 µM | 36.8 µM |
| CC(C)Nc1nc2c(c(=O)n1-c1ccc(N3CC(=O)N(C)C3)cc1)C[C@@H](C)N(C(=O)c1ccc(Cl)c(Cl)c1)C2 [Compound C202, (6R)-7-(3,4-dichlorobenzoyl)-6-methyl-3-[4-(3-methyl-4-oxoimidazolidin-1-yl)phenyl]-2-[(propan-2-yl)amino]-5,6,7,8-tetrahydropyrido[3,4-d]pyrimidin-4(3H)-one] | 0.19 µM | > 50 µM |

Reference: patent US20230091047A1 (priority 2019, published 2023)
